Results reported in PubChem BioAssay AID248 (DTP/NCI, 2004).
“And” between values parts separate entries of the source, which are not always exact repeats. Equal entries are not always repeated. Toxic doses and inconclusive results are not listed. Rule as the data show it: active = T/C of 150% or more; inactive = T/C below 125%.

Tested on: L1210 leukemia ip in BDF1 mice, survival T/C
Experiment: NCI In Vivo Anticancer Drug Screen. Data for tumor model L1210 Leukemia (intraperitoneal) in B6D2F1 (BDF1) mice
Conditions: endpoint: mean survival time, higher = longer survival
How it was run: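 Read-out is survival time, reported as the treated-group measurement over the vehicle-control measurement.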

[1] = dose: 100.0 mg/kg/injection, schedule: Q04DX002 (ip), vehicle: saline with Tween-80
[2] = dose: 100.0 mg/kg/injection, schedule: Q04DX003 (ip), vehicle: saline with Tween-80
[3] = dose: 200.0 mg/kg/injection, schedule: Q04DX002 (ip), vehicle: saline with Tween-80
[4] = dose: 200.0 mg/kg/injection, schedule: Q04DX003 (ip), vehicle: saline with Tween-80
[5] = dose: 400.0 mg/kg/injection, schedule: Q04DX002 (ip), vehicle: saline with Tween-80
[6] = dose: 100.0 mg/kg/injection, schedule: Q01DX009 (ip), vehicle: Klucel (hydroxypropylcellulose) (HPC)
[7] = dose: 100.0 mg/kg/injection, schedule: Q04DX003 (ip), vehicle: Klucel (hydroxypropylcellulose) (HPC)
[8] = dose: 200.0 mg/kg/injection, schedule: Q01DX009 (ip), vehicle: Klucel (hydroxypropylcellulose) (HPC)
[9] = dose: 200.0 mg/kg/injection, schedule: Q04DX003 (ip), vehicle: Klucel (hydroxypropylcellulose) (HPC)
[10] = dose: 400.0 mg/kg/injection, schedule: Q01DX009 (ip), vehicle: Klucel (hydroxypropylcellulose) (HPC)
[11] = dose: 400.0 mg/kg/injection, schedule: Q04DX003 (ip), vehicle: Klucel (hydroxypropylcellulose) (HPC)
[12] = dose: 100.0 mg/kg/injection, schedule: Q01DX001 (ip), vehicle: other
[13] = dose: 200.0 mg/kg/injection, schedule: Q01DX001 (ip), vehicle: other
[14] = dose: 400.0 mg/kg/injection, schedule: Q01DX001 (ip), vehicle: other
[15] = dose: 50.0 mg/kg/injection, schedule: Q04DX003 (ip), vehicle: Klucel (hydroxypropylcellulose) (HPC)

Measured: T/C

Cc1cccc(NC(=S)NC(=O)c2cccc([N+](=O)[O-])c2)c1C
inactive: dose: 100.0 mg/kg/injection, schedule: Q01DX009 (ip), vehicle: saline with Tween-80 104 % of control and 118 % of control | [1] 88 % of control | [2] 99 % of control | dose: 200.0 mg/kg/injection, schedule: Q01DX009 (ip), vehicle: saline with Tween-80 103 % of control and 104 % of control | [3] 102 % of control | [4] 101 % of control | dose: 400.0 mg/kg/injection, schedule: Q01DX009 (ip), vehicle: saline with Tween-80 104 % of control | [5] 98 % of control | dose: 400.0 mg/kg/injection, schedule: Q04DX003 (ip), vehicle: saline with Tween-80 100 % of control

CC(C)(C)C(=C=C=O)C#N
inactive: dose: 100.0 mg/kg/injection, schedule: Q01DX001 (ip), vehicle: saline with Tween-80 87 % of control | dose: 200.0 mg/kg/injection, schedule: Q01DX001 (ip), vehicle: saline with Tween-80 94 % of control | dose: 400.0 mg/kg/injection, schedule: Q01DX001 (ip), vehicle: saline with Tween-80 87 % of control

CN(C)[C@@H]1C(=O)C(C(=O)NCNc2nc3n[nH]nc3c(=O)[nH]2)=C(O)[C@@]2(O)C(=O)C3=C(O)c4c(O)cccc4[C@@](C)(O)[C@H]3C[C@@H]12
inactive: dose: 12.5 mg/kg/injection, schedule: Q01DX009 (ip), vehicle: acetone 98 % of control | dose: 25.0 mg/kg/injection, schedule: Q01DX009 (ip), vehicle: acetone 104 % of control | dose: 50.0 mg/kg/injection, schedule: Q01DX009 (ip), vehicle: acetone 122 % of control | dose: 100.0 mg/kg/injection, schedule: Q01DX001 (ip), vehicle: saline 102 % of control | dose: 100.0 mg/kg/injection, schedule: Q01DX009 (ip), vehicle: acetone 117 % of control | dose: 200.0 mg/kg/injection, schedule: Q01DX001 (ip), vehicle: saline 96 % of control | dose: 200.0 mg/kg/injection, schedule: Q01DX009 (ip), vehicle: acetone 122 % of control | dose: 400.0 mg/kg/injection, schedule: Q01DX001 (ip), vehicle: saline 105 % of control

CCCCCCCCCCCCCCCCCCOc1ccccn1
inactive: [6] 97 % of control | [7] 98 % of control | [8] 96 % of control | [9] 93 % of control | [10] 91 % of control | [11] 92 % of control

C=CC[N+]1=C(C)C(C)(C)c2ccccc21
inactive: [2] 95 % of control | [4] 96 % of control

CCOC(=O)n1cnc2c(Cl)ncnc21
inactive: [12] 109 % of control | [13] 102 % of control | [14] 110 % of control

NC(=O)COc1ccccc1Cl
inactive: [15] 102 % of control | [7] 94 % of control | [9] 93 % of control

CCC(CO)Nc1nc2cc(Cl)ccc2c2ccc(Cl)cc12 (stereo not given)
inactive: [7] 102 % of control | [9] 100 % of control | [11] 103 % of control

CC(C)CC(=O)Nc1ccccc1
inactive: [7] 105 % of control | dose: 100.0 mg/kg/injection, schedule: Q04DX003 (ip), vehicle: other 98 % of control | [9] 101 % of control | dose: 200.0 mg/kg/injection, schedule: Q04DX003 (ip), vehicle: other 98 % of control | [11] 89 % of control | dose: 400.0 mg/kg/injection, schedule: Q04DX003 (ip), vehicle: other 89 % of control

CCCCCNC(=O)CCCC
inactive: dose: 100.0 mg/kg/injection, schedule: Q01DX001 (ip), vehicle: carboxymethylcellulose (CMC) 103 % of control | dose: 100.0 mg/kg/injection, schedule: Q01DX009 (ip), vehicle: carboxymethylcellulose (CMC) 97 % of control and 108 % of control | dose: 100.0 mg/kg/injection, schedule: Q04DX002 (ip), vehicle: carboxymethylcellulose (CMC) 97 % of control | dose: 100.0 mg/kg/injection, schedule: Q04DX003 (ip), vehicle: carboxymethylcellulose (CMC) 101 % of control | dose: 200.0 mg/kg/injection, schedule: Q01DX001 (ip), vehicle: carboxymethylcellulose (CMC) 104 % of control | dose: 200.0 mg/kg/injection, schedule: Q01DX009 (ip), vehicle: carboxymethylcellulose (CMC) 101 % of control and 103 % of control | dose: 200.0 mg/kg/injection, schedule: Q04DX002 (ip), vehicle: carboxymethylcellulose (CMC) 97 % of control | dose: 200.0 mg/kg/injection, schedule: Q04DX003 (ip), vehicle: carboxymethylcellulose (CMC) 97 % of control | dose: 400.0 mg/kg/injection, schedule: Q04DX002 (ip), vehicle: carboxymethylcellulose (CMC) 97 % of control | dose: 400.0 mg/kg/injection, schedule: Q04DX003 (ip), vehicle: carboxymethylcellulose (CMC) 94 % of control

CCc1cccc(CC)c1N1C(=O)C=CC1=O
inactive: dose: 1.56 mg/kg/injection, schedule: Q01DX009 (ip), vehicle: other 102 % of control | dose: 3.13 mg/kg/injection, schedule: Q01DX009 (ip), vehicle: other 105 % of control | dose: 3.13 mg/kg/injection, schedule: Q04DX002 (ip), vehicle: other 87 % of control | dose: 6.25 mg/kg/injection, schedule: Q01DX009 (ip), vehicle: other 105 % of control | dose: 6.25 mg/kg/injection, schedule: Q04DX002 (ip), vehicle: other 93 % of control | dose: 12.5 mg/kg/injection, schedule: Q04DX002 (ip), vehicle: other 107 % of control

CCOC(=O)CC/C(=C/c1cccc2ccccc12)[N+](=O)[O-]
inactive: [2] 105 % of control | [4] 94 % of control

O=[N+]([O-])c1ccc(CCc2ccc([N+](=O)[O-])cc2)cc1
inactive: dose: 50.0 mg/kg/injection, schedule: Q01DX001 (ip), vehicle: other 91 % of control | [12] 95 % of control | [13] 97 % of control | [14] 95 % of control

O=C1CCc2c1cccc2[N+](=O)[O-]
inactive: [1] 102 % of control | [3] 102 % of control | [5] 102 % of control

Nc1cc(NC(c2ccccc2)c2ccccc2)c(N)c(N)n1
inactive: dose: 100.0 mg/kg/injection, schedule: Q01DX001 (ip), vehicle: gum acacia 88 % of control | dose: 200.0 mg/kg/injection, schedule: Q01DX001 (ip), vehicle: gum acacia 90 % of control | dose: 400.0 mg/kg/injection, schedule: Q01DX001 (ip), vehicle: gum acacia 92 % of control

Cc1ccc(C(C)C)c(Oc2cc(C)ccc2C(C)C)c1
inactive: [6] 98 % of control | [7] 97 % of control | [8] 102 % of control | [9] 93 % of control | [10] 108 % of control | [11] 93 % of control

CC1(C)N=C(N)N=C(N)N1c1cccc(OCc2cccc(NC(=O)CBr)c2)c1
inactive: dose: 5.0 mg/kg/injection, schedule: Q01DX001 (ip), vehicle: saline 106 % of control | dose: 10.0 mg/kg/injection, schedule: Q01DX001 (ip), vehicle: saline 103 % of control | dose: 20.0 mg/kg/injection, schedule: Q01DX001 (ip), vehicle: saline 103 % of control | dose: 40.0 mg/kg/injection, schedule: Q01DX001 (ip), vehicle: saline 97 % of control

CCOC(=O)/C(C#N)=C\c1oc2cc(C)c(C)cc2c1C
inactive: [6] 103 % of control | [7] 106 % of control | [8] 99 % of control | [9] 101 % of control | [10] 94 % of control | [11] 98 % of control

Ic1ccc(NC2=NCCN2)c2ccccc12
inactive: dose: 25.0 mg/kg/injection, schedule: Q04DX003 (ip), vehicle: Klucel (hydroxypropylcellulose) (HPC) 111 % of control | [15] 100 % of control | [7] 93 % of control and 91 % of control

CC(C)(C)C1([Si](C)(C)C)SCCCS1
inactive: dose: 100.0 mg/kg/injection, schedule: Q04DX002 (ip), vehicle: other 114 % of control | dose: 200.0 mg/kg/injection, schedule: Q04DX002 (ip), vehicle: other 108 % of control | dose: 400.0 mg/kg/injection, schedule: Q04DX002 (ip), vehicle: other 101 % of control

C/C(CCC(=O)O)=N\NC(=O)COc1ccc(Cl)cc1Cl
inactive: [7] 94 % of control | [9] 98 % of control

OC(c1ccccc1)(c1ccccc1)C1CCC1
inactive: dose: 50.0 mg/kg/injection, schedule: Q01DX009 (ip), vehicle: Klucel (hydroxypropylcellulose) (HPC) 100 % of control | dose: 75.0 mg/kg/injection, schedule: Q01DX001 (ip), vehicle: Klucel (hydroxypropylcellulose) (HPC) 95 % of control | [6] 94 % of control | dose: 150.0 mg/kg/injection, schedule: Q01DX001 (ip), vehicle: Klucel (hydroxypropylcellulose) (HPC) 101 % of control | dose: 300.0 mg/kg/injection, schedule: Q01DX001 (ip), vehicle: Klucel (hydroxypropylcellulose) (HPC) 98 % of control
